From ChEMBL document CHEMBL3885881, “DrugMatrix”
“And” between values parts separate entries of the source, which are not always exact repeats. Equal entries are not always repeated.

Species on record: Rattus norvegicus
Test: DrugMatrix - Regimen: Daily Repeat
Format: toxicity, organism-based, Sprague-Dawley
Parameters: regimen Daily Repeat, gender Male, age 6-8 weeks
Settings: in vivo; for ABSOLUTE BASOPHIL / ABSOLUTE EOSINOPHIL / ABSOLUTE LYMPHOCYTE / ABSOLUTE MONOCYTE / ABSOLUTE SEGMENTED NEUTROPHIL / HEMOGLOBIN / MEAN CORPUSCULAR HEMOGLOBIN / MEAN CORPUSCULAR VOLUME / BASOPHIL / EOSINOPHIL / ERYTHROCYTE COUNT / HEMATOCRIT / LEUKOCYTE COUNT / LYMPHOCYTE / MEAN CORPUSCULAR HEMOGLOBIN CONCENTRATION / MONOCYTE / NEUTROPHIL / PLATELET COUNT / NUCLEATED RED BLOOD CELLS: tissue Blood
[1] = ip, 40 mg/kg, 120 h, tissue Plasma, route intraperitoneal, dose level High, time 5 day, vehicle 100 % SALINE
[2] = ip, 40 mg/kg, […], route intraperitoneal, dose level High, time 14 day, vehicle 100 % SALINE
[3] = ip, 40 mg/kg, […], route intraperitoneal, dose level High, time 28 day, vehicle 100 % SALINE
[4] = ip, 40 mg/kg, […], tissue Plasma, route intraperitoneal, dose level High, time 14 day, vehicle 100 % SALINE
[5] = ip, 40 mg/kg, […], tissue Plasma, route intraperitoneal, dose level High, time 28 day, vehicle 100 % SALINE
[6] = sc, 34 mg/kg, 72 h, route subcutaneous, dose level Low, time 3 day, […]
[7] = sc, 34 mg/kg, 72 h, tissue Plasma, route subcutaneous, dose level Low, time 3 day, […]
[8] = sc, 34 mg/kg, 120 h, route subcutaneous, dose level Low, time 5 day, […]
[9] = sc, 34 mg/kg, 120 h, tissue Plasma, route subcutaneous, dose level Low, time 5 day, […]

Sequence: GENTAMICIN
- LIPASE [1]: 13.6 u/L and 7.25 u/L
- PHOSPHORUS [1]: 12.05 mg/dL
- POTASSIUM [1]: 5.95 MEQ/L
- SODIUM [1]: 150.75 MEQ/L
- TOTAL BILIRUBIN [1]: 0.18 mg/dL and 0.33 mg/dL
- TOTAL PROTEIN [1]: 5.74 G/DL and 6.48 G/DL
- URIC ACID [1]: 0.96 mg/dL
- ABSOLUTE BASOPHIL [2]: 72 cells/µL
- ABSOLUTE EOSINOPHIL [2]: 92 cells/µL
- ABSOLUTE LYMPHOCYTE [2]: 8980 cells/µL
- ABSOLUTE MONOCYTE [2]: 190 cells/µL
- ABSOLUTE SEGMENTED NEUTROPHIL [2]: 1000 cells/µL
- HEMOGLOBIN [2]: 15.3 G/DL
- MEAN CORPUSCULAR HEMOGLOBIN [2]: 19.4 pg
- MEAN CORPUSCULAR VOLUME [2]: 59.54 fL
- ABSOLUTE BASOPHIL [3]: 99 cells/µL
- ABSOLUTE EOSINOPHIL [3]: 110 cells/µL
- ABSOLUTE LYMPHOCYTE [3]: 11600 cells/µL
- ABSOLUTE MONOCYTE [3]: 260 cells/µL
- ABSOLUTE SEGMENTED NEUTROPHIL [3]: 1950 cells/µL
- BASOPHIL [3]: 0.7%
- EOSINOPHIL [3]: 0.81%
- ERYTHROCYTE COUNT [3]: 8.29 x10E6/uL
- HEMATOCRIT [3]: 46.05%
- HEMOGLOBIN [3]: 15.27 G/DL
- LEUKOCYTE COUNT [3]: 14.13 x10E3/uL
- LYMPHOCYTE [3]: 82.22%
- MEAN CORPUSCULAR HEMOGLOBIN [3]: 18.44 pg
- MEAN CORPUSCULAR HEMOGLOBIN CONCENTRATION [3]: 33.17 G/DL
- MEAN CORPUSCULAR VOLUME [3]: 55.59 fL
- MONOCYTE [3]: 1.82%
- NEUTROPHIL [3]: 14.01%
- PLATELET COUNT [3]: 1416.3 x10E3/uL
- CARBON DIOXIDE [4]: 25.75 mmol/L
- CHLORIDE [4]: 107 MEQ/L
- SODIUM [4]: 150 MEQ/L
- ALANINE AMINOTRANSFERASE [5]: 32.3 u/L
- ALBUMIN [5]: 3.62 G/DL
- ALKALINE PHOSPHATASE [5]: 139.3 u/L
- ASPARTATE AMINOTRANSFERASE [5]: 96 u/L
- BLOOD UREA NITROGEN [5]: 14.9 mg/dL
- CHOLESTEROL [5]: 65.3 mg/dL
- CREATINE PHOSPHOKINASE [5]: 320.4 u/L
- CREATININE [5]: 0.65 mg/dL
- LACTATE DEHYDROGENASE [5]: 119.4 u/L
- LIPASE [5]: 11 u/L
- PHOSPHORUS [5]: 9.46 mg/dL
- POTASSIUM [5]: 6.33 MEQ/L
- TOTAL BILIRUBIN [5]: 0.17 mg/dL
- TOTAL PROTEIN [5]: 6.66 G/DL
- URIC ACID [5]: 1.24 mg/dL
- ABSOLUTE BASOPHIL [6]: 0 CELLS/uL
- ABSOLUTE EOSINOPHIL [6]: 60.67 CELLS/uL
- ABSOLUTE LYMPHOCYTE [6]: 14515.67 CELLS/uL
- ABSOLUTE MONOCYTE [6]: 63 CELLS/uL
- ABSOLUTE SEGMENTED NEUTROPHIL [6]: 1227.33 CELLS/uL
- BASOPHIL [6]: 0%
- EOSINOPHIL [6]: 0.33%
- ERYTHROCYTE COUNT [6]: 5.19 x10E6/uL
- HEMATOCRIT [6]: 32.97%
- HEMOGLOBIN [6]: 12.73 G/DL
- LEUKOCYTE COUNT [6]: 15.87 x10E3/uL
- LYMPHOCYTE [6]: 91.67%
- MEAN CORPUSCULAR HEMOGLOBIN [6]: 24.57 pg
- MEAN CORPUSCULAR HEMOGLOBIN CONCENTRATION [6]: 38.63 G/DL
- MEAN CORPUSCULAR VOLUME [6]: 63.57 fL
- MONOCYTE [6]: 0.33%
- NEUTROPHIL [6]: 7.67%
- NUCLEATED RED BLOOD CELLS [6]: 0 /100WBC
- PLATELET COUNT [6]: 1222.33 x10E3/uL
- ALANINE AMINOTRANSFERASE [7]: 55.67 u/L
- ALBUMIN [7]: 4 G/DL
- ALKALINE PHOSPHATASE [7]: 327 u/L
- ASPARTATE AMINOTRANSFERASE [7]: 105 u/L
- BLOOD UREA NITROGEN [7]: 14.67 mg/dL
- CARBON DIOXIDE [7]: 20.67 mmol/L
- CHLORIDE [7]: 107.33 MEQ/L
- CHOLESTEROL [7]: 82 mg/dL
- CREATINE PHOSPHOKINASE [7]: 574.67 u/L
- CREATININE [7]: 0.29 mg/dL
- GLUCOSE [7]: 196.33 mg/dL
- LACTATE DEHYDROGENASE [7]: 268.67 u/L
- LIPASE [7]: 11.33 u/L
- POTASSIUM [7]: 6.59 MEQ/L
- SODIUM [7]: 147.27 MEQ/L
- TOTAL BILIRUBIN [7]: 0.2 mg/dL
- TOTAL PROTEIN [7]: 5.7 G/DL
- ABSOLUTE BASOPHIL [8]: 0 CELLS/uL
- ABSOLUTE EOSINOPHIL [8]: 0 CELLS/uL
- ABSOLUTE LYMPHOCYTE [8]: 14029.67 CELLS/uL
- ABSOLUTE MONOCYTE [8]: 90.67 CELLS/uL
- ABSOLUTE SEGMENTED NEUTROPHIL [8]: 1246.33 CELLS/uL
- BASOPHIL [8]: 0%
- EOSINOPHIL [8]: 0%
- ERYTHROCYTE COUNT [8]: 5.74 x10E6/uL
- HEMOGLOBIN [8]: 13.5 G/DL
- LEUKOCYTE COUNT [8]: 15.37 x10E3/uL
- LYMPHOCYTE [8]: 91%
- MEAN CORPUSCULAR HEMOGLOBIN [8]: 23.57 pg
- MEAN CORPUSCULAR HEMOGLOBIN CONCENTRATION [8]: 36.03 G/DL
- MONOCYTE [8]: 0.67%
- NEUTROPHIL [8]: 8.33%
- NUCLEATED RED BLOOD CELLS [8]: 0 /100WBC
- PLATELET COUNT [8]: 1310.33 x10E3/uL
- ALANINE AMINOTRANSFERASE [9]: 46.33 u/L
- ALBUMIN [9]: 4.2 G/DL
- ALKALINE PHOSPHATASE [9]: 391.33 u/L
- ASPARTATE AMINOTRANSFERASE [9]: 95.33 u/L
- CARBON DIOXIDE [9]: 24 mmol/L
- CHLORIDE [9]: 106.67 MEQ/L
- CHOLESTEROL [9]: 71 mg/dL
- CREATINE PHOSPHOKINASE [9]: 308.33 u/L
- CREATININE [9]: 0.18 mg/dL
- LACTATE DEHYDROGENASE [9]: 196.33 u/L
- PHOSPHORUS [9]: 13.37 mg/dL
- POTASSIUM [9]: 7.64 MEQ/L
- TOTAL BILIRUBIN [9]: 0.2 mg/dL
